Results on two compounds are retold here after patent US11447485B2, “Class of bifunctional compounds with quanternary ammonium salt structure” (Beijing Showby Pharmaceutical Co., Ltd., priority 2016, dated 2022).

Test [1] has as its system moderate and severe COPD. To be noted: phase II clinical study; cited from earlier work.
Test [2] has as its system tracheal smooth muscle of guinea pig. As to the kind of experiment: Relaxation of CCh-induced constriction of isolated guinea pig tracheal smooth muscle (Experimental Example 1). To be noted: in vitro.
For test [3], the target named is T1, human recombinant β1 adrenoceptor (Homo sapiens, UniProt P08588).
T1 construct: expressed in transfected cells
Put plainly: cAMP accumulation, human recombinant β1 adrenoceptor. In kind it is cell-based. To be noted: cAMP accumulation; 10 nM ICI118551 added; HEK293 cells; read-out: EC50 (β1). Here is the method: In order to measure the activity and selectivity of agonists to human β1 and β2 adrenoceptors, the cAMP accumulation of expressed receptors in each recombinant cell line was measured. cAMP was determined by homology radioimmunoassay, that is, cells were washed with PSB buffer solution and suspended in the buffer solution at room temperature to grow to 30000-40000 cells per well. The test compound was diluted with PSB buffer solution containing 0.1% BSA and tested at 11 gradient concentrations ranging from 100 uM to 0.1 pM. For the analysis of β1-adrenoceptor, 10 nM of ICI118551 was added to block the expression of β2-adrenoceptor in HEK293 cells. After the compound was added to the suspended cells, the scintillation plate was incubated at 37° C. for 10 minutes, the reaction was terminated with ice-cold detection buffer solution, and its radioactivity was measured after storage at 4° C. overnight.
The agonistic activity (pEC50 value) was analyzed by regression using S-type dose response model of software package (GraphPad Software, San Diego, Calif.). Selectivity was calculated from the ratio of measured cAMP of β1 and β2 adrenoceptors, which was expressed as sel. β1/β2=(EC50 (β1)/EC50 (β2)).

Test [4] concerns the target T2, human recombinant β2 adrenoceptor (Homo sapiens, UniProt P07550).
T2 construct: expressed in transfected cells
Put plainly: cell-based. It is filed as cell-based.

Test [5] concerns the target human recombinant M1 receptor (Homo sapiens, UniProt P11229). Put plainly: biochemical. It is filed as binding. To be noted: 3H-QNB […], 25° C., 5 h; read-out: hM1Ki.
The target in test [6] is human recombinant M2 receptor (Homo sapiens, UniProt P08172). As to the kind of experiment: biochemical. In kind it is binding. To be noted: 3H-QNB 1.81 nmol/L, 25° C., 5 h; read-out: hM2Ki.
For test [7], the target named is human recombinant M3 receptor (Homo sapiens, UniProt P20309). Put plainly: biochemical. It is filed as binding. To be noted: 3H-QNB […], 25° C., 5 h; read-out: hM3Ki.
Chain of human recombinant M3 receptor (P20309 whole entry): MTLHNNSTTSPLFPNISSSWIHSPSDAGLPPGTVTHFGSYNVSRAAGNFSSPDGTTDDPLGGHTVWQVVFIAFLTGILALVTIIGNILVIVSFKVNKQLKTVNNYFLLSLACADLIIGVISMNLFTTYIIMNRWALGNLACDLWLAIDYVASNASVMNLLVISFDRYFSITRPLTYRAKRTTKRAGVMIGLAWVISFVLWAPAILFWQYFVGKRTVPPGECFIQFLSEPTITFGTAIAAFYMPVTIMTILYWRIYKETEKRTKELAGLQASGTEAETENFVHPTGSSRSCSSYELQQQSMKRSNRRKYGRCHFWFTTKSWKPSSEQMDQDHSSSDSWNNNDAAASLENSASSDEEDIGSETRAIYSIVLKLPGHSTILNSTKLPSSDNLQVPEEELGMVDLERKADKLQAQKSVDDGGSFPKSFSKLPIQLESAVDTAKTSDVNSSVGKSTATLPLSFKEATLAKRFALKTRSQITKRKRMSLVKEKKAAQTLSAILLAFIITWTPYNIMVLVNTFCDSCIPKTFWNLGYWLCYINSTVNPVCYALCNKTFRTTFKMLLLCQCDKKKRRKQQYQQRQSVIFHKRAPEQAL

Chain of human recombinant M1 receptor (P11229 whole entry): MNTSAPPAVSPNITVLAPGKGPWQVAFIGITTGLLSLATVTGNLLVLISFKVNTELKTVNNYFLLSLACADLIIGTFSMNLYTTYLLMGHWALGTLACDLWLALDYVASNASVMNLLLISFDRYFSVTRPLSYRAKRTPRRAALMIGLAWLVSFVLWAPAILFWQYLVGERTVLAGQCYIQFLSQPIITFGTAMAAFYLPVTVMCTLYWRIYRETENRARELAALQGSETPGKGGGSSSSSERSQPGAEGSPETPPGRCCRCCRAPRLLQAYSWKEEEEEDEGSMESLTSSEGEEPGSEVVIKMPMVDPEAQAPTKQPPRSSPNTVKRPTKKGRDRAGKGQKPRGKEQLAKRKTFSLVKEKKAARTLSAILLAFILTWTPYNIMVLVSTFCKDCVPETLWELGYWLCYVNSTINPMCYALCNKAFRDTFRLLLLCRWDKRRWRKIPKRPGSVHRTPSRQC
Chain of human recombinant M2 receptor (P08172 whole entry): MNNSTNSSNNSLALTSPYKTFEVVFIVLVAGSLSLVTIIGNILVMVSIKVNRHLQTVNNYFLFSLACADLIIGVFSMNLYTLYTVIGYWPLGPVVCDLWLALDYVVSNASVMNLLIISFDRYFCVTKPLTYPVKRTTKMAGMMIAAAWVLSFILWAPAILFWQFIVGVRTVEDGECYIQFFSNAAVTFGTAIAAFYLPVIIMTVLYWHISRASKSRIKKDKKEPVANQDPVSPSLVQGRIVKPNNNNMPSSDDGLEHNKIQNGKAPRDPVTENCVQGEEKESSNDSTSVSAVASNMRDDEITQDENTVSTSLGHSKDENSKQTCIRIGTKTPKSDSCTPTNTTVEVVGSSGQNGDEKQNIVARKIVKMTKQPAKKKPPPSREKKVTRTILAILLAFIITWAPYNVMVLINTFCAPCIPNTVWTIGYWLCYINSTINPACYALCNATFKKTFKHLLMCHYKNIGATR
T1 sequence (P08588 whole entry): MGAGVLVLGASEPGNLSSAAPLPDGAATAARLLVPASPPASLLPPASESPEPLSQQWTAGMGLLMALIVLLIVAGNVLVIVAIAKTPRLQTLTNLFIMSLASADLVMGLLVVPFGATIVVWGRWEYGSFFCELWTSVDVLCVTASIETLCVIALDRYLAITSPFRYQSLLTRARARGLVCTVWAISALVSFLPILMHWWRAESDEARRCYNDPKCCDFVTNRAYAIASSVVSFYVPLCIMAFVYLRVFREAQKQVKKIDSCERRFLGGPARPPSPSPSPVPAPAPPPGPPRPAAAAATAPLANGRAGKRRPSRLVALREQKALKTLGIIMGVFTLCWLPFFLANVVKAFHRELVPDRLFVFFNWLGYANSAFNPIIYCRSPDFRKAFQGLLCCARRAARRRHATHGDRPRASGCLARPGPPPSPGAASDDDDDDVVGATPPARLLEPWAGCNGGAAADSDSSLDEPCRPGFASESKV

For the compound `COc1cc(NC(=O)CCN2CCC(OC(=O)Nc3ccccc3-c3ccccc3)CC2)c(Cl)cc1CNC[C@H](O)c1ccc(O)c2[nH]c(=O)ccc12` [TD5959], the “effect on moderate and severe COPD” value in test [1] is “good effect on moderate and severe COPD”.
For orientation: EC50 means the midpoint of the concentration-response curve. For “(R)-(−)-3-[(R)-2-hydroxy-2-cyclopentyl-2-phenyl]ethoxy-1-{3-[(4-(3-methyl-1-{(R)-[2-hydroxy-2-(6-hydroxy-2H-1,4-benzoxazin-3(4H)-one-8-yl)]ethylamino}ethylidene)phenoxy]propyl}-1-azabicyclo[2,2,2]octylonium bromide [Compound 63]”, the “Onset time (min) ± SD” value in test [2] (CCh 3 × 10^−6 mol/L) is listed as 6.19 ± 0.12 min. Besides, the “Time for eliminating inhibition effect (min)” value in test [2] (CCh 3 × 10^−6 mol/L) is reported as “more than 300 min”. Further, the EC50 in test [2] (constriction induced by CCh 3 × 10^−6 mol/L, read-out: EC50 (μM) ± SD) turned out to be 0.0155 ± 0.0078 µM; in test [3], 17000 ± 5800 pM. For the same compound, the “sel (β1/β2)” value in test [4] is on record as 80.8. Further, the results for the Ki in test [5], in test [6] and in test [7] were 49.3 ± 21 pM, 323 ± 170 pM and 19.8 ± 12 pM, respectively.
